In patent US7629340B2, “N-(6-membered aromatic ring)-amido anti-viral compounds” (SmithKline Beecham Corporation, priority 2005, dated 2009):

Experiment: Replicon Assay (luciferase, ET cell line)
Format: cell-based, HCV
Details: Hepatitis C virus; % inhibition of replication relative to no compound control, test concentration of 10 μM; ET cells, luciferase read 48-72 hours; read-out: % inhib at 10 uM
Method: A cell line, ET (Huh-lucubineo-ET) was used for screening of compounds of the present invention for HCV RNA dependent RNA polymerase. The ET cell line was stably transfected with RNA transcripts harboring a I389luc-ubi-neo/NS3-3′/ET; replicon with firefly luciferase-ubiquitin-neomycin phosphotransferase fusion protein and EMCV-IRES driven NS3-5B polyprotein containing the cell culture adaptive mutations (E1202G; T1280I; K1846T) (Krieger at al, 2001 and unpublished). The ET cells were grown in DMEM, supplemented with 10% fetal calf serum, 2 mM Glutamine, Penicillin (100 IU/mL)/Stretomycin (100 μg/mL), 1× nonessential amino acids, and 250 μg/mL G418 (“Geneticin”). They were all available through Life Technologies (Bethesda, Md.). The cells were plated at 0.5−1.0×10^4 cells/well in the 96 well plates and incubated for 24 hrs before adding nucleoside analogs. […] Luciferase activity were measured 48-72 hours later by adding a lysis buffer and the substrate (Catalog number Glo-lysis buffer E2661 and Bright-Glo luciferase system E2620 Promega, Madison, Wis.). Cells should not be too confluent during the assay. Percent inhibition of replication was plotted relative to no compound control. Under the same condition, cytotoxicity of the compounds was determined using cell proliferation reagent, WST-1 (Roche, Germany). The compounds showing antiviral activities, but no significant cytotoxicities were chosen to determine IC50 and TC50. For these determinations, 10 concentration of each compound were used. Concentrations for test compounds typically span a range of 500 fold. IC50 and TC50 values were calculated by fitting % inhibition at each concentration (I) to the following equation: % inhibition=100%/[1+10^(log IC50−log(I))*b] where b is Hill's coefficient.

SMILES | inhibition at 10 µM [%]
O=C(Nc1cccc(-c2ccc3[nH]ccc3c2)c1)[C@@H]1CCCN1C(=O)OCc1ccccc1 [Compound 6010, 2-[3-(1H-Indol-5-yl)-phenylcarbamoyl]-pyrrolidine-1-carboxylic acid benzyl ester] | 98.6
O=C(Nc1ccc(-c2cccc(-c3ccccc3)c2)cc1)[C@@H]1CCCN1C(=O)OCc1ccccc1 [Compound 6011, 2-([1,1′;3′,1″]Terphenyl-4-ylcarbamoyl)-pyrrolidine-1-carboxylic acid benzyl ester] | 99.7
O=C(Nc1cccc(Oc2c(F)c(F)c(F)c(F)c2F)c1)[C@@H]1CCCN1C(=O)OCc1ccccc1 [Compound 6012, 2-(3-Pentafluorophenyloxy-phenylcarbamoyl)-pyrrolidine-1-carboxylic acid benzyl ester] | 44.5
O=C(Nc1cccc(S(=O)(=O)c2ccccc2)c1)[C@@H]1CCCN1C(=O)OCc1ccccc1 [Compound 6013, 2-(3-Benzenesulfonyl-phenylcarbamoyl)-pyrrolidine-1-carboxylic acid benzyl ester] | 32.5
Cc1cc2nc(Cc3ccc(NC(=O)[C@@H]4CCCN4C(=O)OCc4ccccc4)cc3)[nH]c2cc1C [Compound 6014, 2-[4-(5,6-Dimethyl-1H-benzoimidazol-2-ylmethyl)-phenylcarbamoyl]-pyrrolidine-1-carboxylic acid benzyl ester] | 99.6
COc1ccc(-c2ccc(NC(=O)[C@@H]3CCCN3C(=O)OCc3ccccc3)cc2)cc1 [Compound 6019, 2-(4′-Methoxy-biphenyl-4-ylcarbamoyl)-pyrrolidine-1-carboxylic acid benzyl ester] | 10.5
O=C(Nc1ccc(Cc2nc3cc4ccccc4cc3[nH]2)cc1)[C@@H]1CCCN1C(=O)OCc1ccccc1 [Compound 6020, 2-[4-(1H-Naphtho[2,3-d]imidazol-2-ylmethyl)-phenylcarbamoyl]-pyrrolidine-1-carboxylic acid benzyl ester] | 99.9
O=C(Nc1ccc(-c2cccc(COc3ccccc3)c2)cc1)[C@@H]1CCCN1C(=O)OCc1ccccc1 [Compound 6021, 2-(3′-Phenoxymethyl-biphenyl-4-ylcarbamoyl)-pyrrolidine-1-carboxylic acid benzyl ester] | 56.1
O=C(Nc1cccc(-c2cccs2)c1)[C@@H]1CCCN1C(=O)OCc1ccccc1 [Compound 6022, 2-(3-Thiophen-2-yl-phenylcarbamoyl)-pyrrolidine-1-carboxylic acid benzyl ester] | 87.3
O=C(Nc1ccc(-c2cccs2)cc1)[C@@H]1CCCN1C(=O)OCc1ccccc1 [Compound 6023, 2-(4-Thiophen-2-yl-phenylcarbamoyl)-pyrrolidine-1-carboxylic acid benzyl ester] | 75.4
O=C(Nc1cc(Oc2ccccc2)cc(Oc2cccnc2)c1)[C@@H]1CCCN1C(=O)OCc1ccccc1 [Compound 6024, 2-[3-Phenoxy-5-(pyridin-3-yloxy)-phenylcarbamoyl]-pyrrolidine-1-carboxylic acid benzyl ester] | 98.1
O=C(Nc1ccc(-c2nnc(-c3ccco3)o2)cc1)[C@@H]1CCCN1C(=O)OCc1ccccc1 [Compound 6025, 2-[4-(5-Furan-2-yl-[1,3,4]oxadiazol-2-yl)-phenylcarbamoyl]-pyrrolidine-1-carboxylic acid benzyl ester] | 5.45
COc1cccc(-c2cccc(NC(=O)[C@@H]3CCCN3C(=O)OCc3ccccc3)c2)c1OC [Compound 6026, 2-(2′,3′-Dimethoxybiphenyl-3-yl-carbamoyl)-pyrrolidine-1-carboxylic acid benzyl ester] | 98.7
COc1cccc(-c2ccc(NC(=O)[C@@H]3CCCN3C(=O)OCc3ccccc3)cc2)c1OC [Compound 6028, 2-(2′,3′-Dimethoxy-biphenyl-4-ylcarbamoyl)-pyrrolidine-1-carboxylic acid benzyl ester] | 75
COc1ccc(-c2cccc(NC(=O)[C@@H]3CCCN3C(=O)OCc3ccccc3)c2)cc1OC [Compound 6029, 2-(3′,4′-Dimethoxybiphenyl-3-yl-carbamoyl)-pyrrolidine-1-carboxylic acid benzyl ester] | 3.08
COc1ccc2nc(NC(=O)c3ccc(NC(=O)[C@@H]4CCCN4C(=O)OCc4ccccc4)cc3)sc2c1 [Compound 6030, 2-[4-(6-Methoxy-benzothiazol-2-ylcarbamoyl)-phenylcarbamoyl]-pyrrolidine-1-carboxylic acid benzyl ester] | 42.2

SMILES | inhibition at 10 µM [%]
COc1ccccc1-c1cccc(NC(=O)[C@@H]2CCCN2C(=O)OCc2ccccc2)c1 [Compound 6031, 2-(2′-Methoxybiphenyl-3-yl-carbamoyl)-pyrrolidine-1-carboxylic acid benzyl ester] | 28.6
O=C(Nc1cc(Oc2ccc3oc4c(c3c2)CCCC4)cc([N+](=O)[O-])c1)[C@@H]1CCCN1C(=O)OCc1ccccc1 [Compound 6032, 2-[3-Nitro-5-(6,7,8,9-tetrahydro-dibenzofuran-2-yloxy)-phenylcarbamoyl]-pyrrolidine-1-carboxylic acid benzyl ester] | 44.5
O=C(Nc1cccc(Oc2ccccc2)c1)[C@@H]1CCCN1C(=O)OCc1ccccc1 [Compound 6034, 2-(3-Phenoxy-phenylcarbamoyl)-pyrrolidine-1-carboxylic acid benzyl ester] | 26.7
O=C(Nc1ccc(-c2ccccc2)cc1)[C@@H]1CCCN1C(=O)OCc1ccccc1 [Compound 6035, 2-(Biphenyl-4-ylcarbamoyl)-pyrrolidine-1-carboxylic acid benzyl ester] | 42.5
COc1cccc(OC)c1-c1ccc(NC(=O)[C@@H]2CCCN2C(=O)OCc2ccccc2)cc1 [Compound 6036, 2-(2′,6′-Dimethoxy-biphenyl-4-ylcarbamoyl)-pyrrolidine-1-carboxylic acid benzyl ester] | 22.9
COc1ccc(-c2cccc(NC(=O)[C@@H]3CCCN3C(=O)OCc3ccccc3)c2)cc1 [Compound 6037, 2-(4′-Methoxybiphenyl-3-yl-carbamoyl)-pyrrolidine-1-carboxylic acid benzyl ester] | 8.6
O=C(Nc1cccc(-c2ccc3c(c2)OCO3)c1)[C@@H]1CCCN1C(=O)OCc1ccccc1 [Compound 6043, 2-(3-Benzo[1,3]dioxol-5-yl-phenylcarbamoyl)-pyrrolidine-1-carboxylic acid benzyl ester] | 93.9
O=C(Nc1cccc(-c2ccc3ccccc3c2)c1)[C@@H]1CCCN1C(=O)OCc1ccccc1 [Compound 6044, 2-(3-Naphthalen-2-yl-phenylcarbamoyl)-pyrrolidine-1-carboxylic acid benzyl ester] | 73.2
CN(C)c1ccc(-c2cccc(NC(=O)[C@@H]3CCCN3C(=O)OCc3ccccc3)c2)cc1 [Compound 6045, 2-(4′-Dimethylamino-biphenyl-3-ylcarbamoyl)-pyrrolidine-1-carboxylic acid benzyl ester] | 15.7
O=C(Nc1cccc(Br)c1)[C@@H]1CCCN1C(=O)OCc1ccccc1 [Compound 6047, 2-(3-Bromo-phenylcarbamoyl)-pyrrolidine-1-carboxylic acid benzyl ester] | 1.38
CC(=O)c1ccc(-c2cccc(NC(=O)[C@@H]3CCCN3C(=O)OCc3ccccc3)c2)s1 [Compound 6048, 2-[3-(5-Acetyl-thiophen-2-yl)-phenylcarbamoyl]-pyrrolidine-1-carboxylic acid benzyl ester] | 36.9
Cn1ccc2cc(-c3cccc(NC(=O)[C@@H]4CCCN4C(=O)OCc4ccccc4)c3)ccc21 [Compound 6051, 2-[3-(1-Methyl-1H-indol-5-yl)-phenylcarbamoyl]-pyrrolidine-1-carboxylic acid benzyl ester] | 68.8
CC(=O)c1ccc(-c2cccc(NC(=O)[C@@H]3CCCN3C(=O)OCc3ccccc3)c2)cc1 [Compound 6052, 2-(4′-Acetyl-biphenyl-3-ylcarbamoyl)-pyrrolidine-1-carboxylic acid benzyl ester] | 48.3
O=C(Nc1cccc(-c2ccc([N+](=O)[O-])cc2)c1)[C@@H]1CCCN1C(=O)OCc1ccccc1 [Compound 6053, 2-(4′-Nitro-biphenyl-3-ylcarbamoyl)-pyrrolidine-1-carboxylic acid benzyl ester] | 93.3
Nc1cccc(-c2cccc(NC(=O)[C@@H]3CCCN3C(=O)OCc3ccccc3)c2)c1 [Compound 6054, 2-(3′-Amino-biphenyl-3-ylcarbamoyl)-pyrrolidine-1-carboxylic acid benzyl ester] | 97.7
O=C(O)/C=C/c1ccc(-c2cccc(NC(=O)[C@@H]3CCCN3C(=O)OCc3ccccc3)c2)cc1 [Compound 6055, 2-[4′-(2-Carboxy-vinyl)-biphenyl-3-ylcarbamoyl]-pyrrolidine-1-carboxylic acid benzyl ester] | 40.9
